Results on 1 molecule are retold here after article PMC7869707 (European Journal of Medicinal Chemistry, 2021).

For the test, the system named is wild-type SARS-CoV-2 (wuhan-HU-1 variant). In kind it is cell-based.

In the case of `C[C@@H]1O[C@@H](O[C@H]2[C@H](O[C@H]3CC[C@]4(C)[C@H]5CC=C6[C@@H]7CC(C)(C)CC[C@]7(C(=O)NCc7ccccc7)CC[C@@]6(C)[C@]5(C)CC[C@H]4C3(C)C)O[C@H](CO)[C@@H](O[C@@H]3O[C@@H](C)[C@H](O)[C@@H](O)[C@H]3O)[C@@H]2O)[C@H](O)[C@H](O)[C@H]1O` [Compound 12f, N-{3β-O-[2,4-di-O-(a-L-rhamnopyranosyl)-β-D-glucopyranosyl]-olean-12-en-28-oyl}-benzylamine], the “Inhibition of SARS-CoV-2 infection by IFA, NP expression” value was “dose-dependent manner”.
